The compounds below were run against T1, Recombinant human CBP containing the bromodomain (CBP-BD (1043-1159)) (Homo sapiens, UniProt Q92793) (assay: CBP Alphascreen binding assay). Conditions: read-out: CREBBP (CBP) IC50.
T1 construct: Recombinant human CBP bromodomain (CBP-BD (1043-1159)); made in house; host or cells: E. coli BL21-CodonPlus (DE3), modified pET vector
Procedure, shortened: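 Buffer: 50 mM HEPES pH 7.5, 50 mM NaCl, 0.01% BSA, 0.01% Triton X-100, 2 mM DTT. The signal was normalised to plate controls and fitted with a four-parameter curve to give IC50.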

T1 sequence (Q92793 1081-1197): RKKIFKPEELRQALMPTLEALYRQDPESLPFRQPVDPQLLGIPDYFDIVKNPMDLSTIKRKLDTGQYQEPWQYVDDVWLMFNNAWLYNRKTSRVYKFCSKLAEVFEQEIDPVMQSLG

Compound | IC50 [µM]
CCc1onc(C)c1-c1cnc2c(c1)c(-c1ccc(C(=O)O)cc1OC(F)(F)F)cn2C1CCOCC1 [P-0401, 4-(5-(5-ethyl-3-methylisoxazol-4-yl)-1-(tetrahydro-2H-pyran-4-yl)-1H-pyrrolo[2,3-b]pyridin-3-yl)-3-(trifluoromethoxy)benzoic acid] | 0.0001 to 1
Cc1cc(C(=O)O)cc(OC(C)C)c1-c1cn(C2CCOCC2)c2ncc(-c3c(C)noc3C)cc12 [P-0402, 4-(5-(3,5-dimethylisoxazol-4-yl)-1-(tetrahydro-2H-pyran-4-yl)-1H-pyrrolo[2,3-b]pyridin-3-yl)-3-isopropoxy-5-methylbenzoic acid] | 0.0001 to 1
Cc1noc(C)c1-c1cnc2c(c1)c(-c1ccc(C(=O)O)cc1OC(C)C)cn2C1(C)CCOCC1 [P-0403, 4-(5-(3,5-dimethylisoxazol-4-yl)-1-(4-methyltetrahydro-2H-pyran-4-yl)-1H-pyrrolo[2,3-b]pyridin-3-yl)-3-isopropoxybenzoic acid] | 0.0001 to 1
Cc1noc(C)c1-c1cnc2c(c1)c(-c1c(Cl)cc(C(=O)O)cc1OC(C)C)cn2C1(C)CCOCC1 [P-0404, 3-chloro-4-(5-(3,5-dimethylisoxazol-4-yl)-1-(4-methyltetrahydro-2H-pyran-4-yl)-1H-pyrrolo[2,3-b]pyridin-3-yl)-5-isopropoxybenzoic acid] | 0.0001 to 1
CCOc1nc(C(=O)O)ccc1-c1cn(C2(C)CCOCC2)c2ncc(-c3c(C)noc3C)cc12 [P-0405, 5-(5-(3,5-dimethylisoxazol-4-yl)-1-(4-methyltetrahydro-2H-pyran-4-yl)-1H-pyrrolo[2,3-b]pyridin-3-yl)-6-ethoxypicolinic acid] | 0.0001 to 1
CCOc1nc(C(=O)O)c(Cl)cc1-c1cn([C@H]2CCOC2)c2ncc(-c3c(C)noc3C)cc12 [P-0406, (S)-3-chloro-5-(5-(3,5-dimethylisoxazol-4-yl)-1-(tetrahydrofuran-3-yl)-1H-pyrrolo[2,3-b]pyridin-3-yl)-6-ethoxypicolinic acid] | 0.0001 to 1
Cc1noc(C)c1-c1cnc2c(c1)c(-c1ccc(C(=O)O)cc1OC(C)C)cn2C1(C)CCOC1 (centres unmarked) [P-0407, 4-(5-(3,5-dimethylisoxazol-4-yl)-1-(3-methyltetrahydrofuran-3-yl)-1H-pyrrolo[2,3-b]pyridin-3-yl)-3-isopropoxybenzoic acid] | 0.0001 to 1
Cc1noc(C)c1-c1cnc2c(c1)c(-c1c(Cl)cc(C(=O)O)cc1OC(C)C)cn2C1(C)CCOC1 (centres unmarked) [P-0408, 3-chloro-4-(5-(3,5-dimethylisoxazol-4-yl)-1-(3-methyltetrahydrofuran-3-yl)-1H-pyrrolo[2,3-b]pyridin-3-yl)-5-isopropoxybenzoic acid] | 0.0001 to 1
Cc1noc(C)c1-c1cnc2c(c1)c(-c1c(Cl)cc(C(=O)O)cc1OC1CC1)cn2-c1ncccc1C#N [P-0409, 3-chloro-4-(1-(3-cyanopyridin-2-yl)-5-(3,5-dimethylisoxazol-4-yl)-1H-pyrrolo[2,3-b]pyridin-3-yl)-5-cyclopropoxybenzoic acid] | 0.0001 to 1
Cc1noc(C)c1-c1cnc2c(c1)c(-c1c(F)cc(C(=O)O)cc1OC1CCC1)cn2C1CCOCC1 [P-0410, 3-cyclobutoxy-4-(5-(3,5-dimethylisoxazol-4-yl)-1-(tetrahydro-2H-pyran-4-yl)-1H-pyrrolo[2,3-b]pyridin-3-yl)-5-fluorobenzoic acid] | 0.0001 to 1
CCOc1nc(C(=O)O)cc(C)c1-c1cn(C2CCOCC2)c2ncc(-c3c(C)noc3C)cc12 [P-0411, 5-(5-(3,5-dimethylisoxazol-4-yl)-1-(tetrahydro-2H-pyran-4-yl)-1H-pyrrolo[2,3-b]pyridin-3-yl)-6-ethoxy-4-methylpicolinic acid] | 0.0001 to 1
CCOc1nc(C(=O)O)cc(C)c1-c1cn(-c2ccc(F)cc2F)c2ncc(-c3c(C)noc3C)cc12 [P-0412, 5-(1-(2,4-difluorophenyl)-5-(3,5-dimethylisoxazol-4-yl)-1H-pyrrolo[2,3-b]pyridin-3-yl)-6-ethoxy-4-methylpicolinic acid] | 0.0001 to 1
Cc1nnn(C)c1-c1cnc2c(c1)c(-c1ccc(C(=O)O)cc1OC1CC1)cn2C1CCOCC1 [P-0413, 3-cyclopropoxy-4-(5-(1,4-dimethyl-1H-1,2,3-triazol-5-yl)-1-(tetrahydro-2H-pyran-4-yl)-1H-pyrrolo[2,3-b]pyridin-3-yl)benzoic acid] | 0.0001 to 1
CCOc1cc(C(=O)O)nc(OCC)c1-c1cn(-c2ccccc2F)c2ncc(-c3c(C)noc3C)cc12 [P-0414, 5-(5-(3,5-dimethylisoxazol-4-yl)-1-(2-fluorophenyl)-1H-pyrrolo[2,3-b]pyridin-3-yl)-4,6-diethoxypicolinic acid] | 0.0001 to 1
CCOc1cc(C(=O)O)nc(OCC)c1-c1cn([C@@H](C)c2ccccn2)c2ncc(-c3c(C)noc3C)cc12 [P-0415, (S)-5-(5-(3,5-dimethylisoxazol-4-yl)-1-(1-(pyridin-2-yl)ethyl)-1H-pyrrolo[2,3-b]pyridin-3-yl)-4,6-diethoxypicolinic acid] | 0.0001 to 1
CCOc1nc(C(=O)O)c(C)cc1-c1cn(C(C2CC2)C2CC2)c2ncc(-c3c(C)noc3C)cc12 [P-0416, 5-(1-(dicyclopropylmethyl)-5-(3,5-dimethylisoxazol-4-yl)-1H-pyrrolo[2,3-b]pyridin-3-yl)-6-ethoxy-3-methylpicolinic acid] | 0.0001 to 1
CCOc1nc(C(=O)O)cc(C)c1-c1cn(C(C2CC2)C2CC2)c2ncc(-c3c(C)noc3C)cc12 [P-0417, 5-(1-(dicyclopropylmethyl)-5-(3,5-dimethylisoxazol-4-yl)-1H-pyrrolo[2,3-b]pyridin-3-yl)-6-ethoxy-4-methylpicolinic acid] | 0.0001 to 1
Cc1noc(C)c1-c1cnc2c(c1)c(-c1ccnc(C(=O)O)c1C)cn2C(C1CC1)C1CC1 [P-0418, 4-(1-(dicyclopropylmethyl)-5-(3,5-dimethylisoxazol-4-yl)-1H-pyrrolo[2,3-b]pyridin-3-yl)-3-methylpicolinic acid] | 0.0001 to 1
Cc1noc(C)c1-c1cnc2c(c1)c(-c1ccnc(C(=O)O)c1C)cn2C1CCOCC1 [P-0419, 4-(5-(3,5-dimethylisoxazol-4-yl)-1-(tetrahydro-2H-pyran-4-yl)-1H-pyrrolo[2,3-b]pyridin-3-yl)-3-methylpicolinic acid] | 0.0001 to 1
CCOc1cc(C(=O)O)nc(OCC)c1-c1cn(C(C2CC2)C2CC2)c2ncc(-c3c(C)noc3C)cc12 [P-0420, 5-(1-(dicyclopropylmethyl)-5-(3,5-dimethylisoxazol-4-yl)-1H-pyrrolo[2,3-b]pyridin-3-yl)-4,6-diethoxypicolinic acid] | 0.0001 to 1
CCOc1cc(C(=O)O)nc(OCC)c1-c1cn(-c2ncccc2C#N)c2ncc(-c3c(C)noc3C)cc12 [P-0421, 5-(1-(3-cyanopyridin-2-yl)-5-(3,5-dimethylisoxazol-4-yl)-1H-pyrrolo[2,3-b]pyridin-3-yl)-4,6-diethoxypicolinic acid] | 0.0001 to 1
CCOc1cc(C(=O)O)nc(OCC)c1-c1cn(-c2ncccc2C(N)=O)c2ncc(-c3c(C)noc3C)cc12 [P-0422, 5-(1-(3-carbamoylpyridin-2-yl)-5-(3,5-dimethylisoxazol-4-yl)-1H-pyrrolo[2,3-b]pyridin-3-yl)-4,6-diethoxypicolinic acid] | 0.0001 to 1
CCOc1cc(C(=O)O)nc(OCC)c1-c1cn(-c2ccc(C#N)cc2F)c2ncc(-c3c(C)noc3C)cc12 [P-0423, 5-(1-(4-cyano-2-fluorophenyl)-5-(3,5-dimethylisoxazol-4-yl)-1H-pyrrolo[2,3-b]pyridin-3-yl)-4,6-diethoxypicolinic acid] | 0.0001 to 1
